In PubChem BioAssay (NCI):
“And” between values parts separate entries of the source, which are not always exact repeats. Equal values may be shown once.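 Dose response: 5 concentrations. Exposure: 48 h. Format: 96-well plates. Endpoint: linear interpolation; highest concentration if not reached. Here, GI50 denotes the concentration required for 50% inhibition of growth. TGI: total growth inhibition.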 *1 amine or outer side, *2 acyl side, *3 side chain or, on linkers, in order; H or OH if unused. Where a SMILES comes first, the peptide text is derived from it. [ ]: non-standard residue; d: D form. The star is where a group is joined. X11 = C/C=C/CC(C)C(O)[C@H](N[*:1])C(=O)[*:2]; Leu(ol) = CC(C)C[C@H](N)CO; Iva = CC[C@](C)(N)C(=O)O; Octanoyl = CCCCCCCC(=O)*; Aib = CC(C)(N)C(=O)O

These compounds were tested on MDA-MB-468 breast (assay: NCI tumour cell line growth inhibition, 48 h).
`O=C(c1ccccc1)C(CN1CCCCC1)c1ccccc1` (stereo not given) was tested, and the GI50 was 536 nM and the TGI was 1.9 µM. `[N-]=[N+]=NCCCCCC(=O)OC(C(=O)c1ccccc1)c1cccc(OCC(=O)NCCOCCOCCNC(=O)CCCC[C@@H]2SC[C@@H]3NC(=O)N[C@@H]32)c1` (stereo not given in full) was tested, and the GI50 was 27500 nM and the TGI was greater than 100 µM. `CCN(CC)CC(O)CNc1c2ccc([N+](=O)[O-])cc2nc2cc(OC)c(OC)cc12` (stereo not given) showed a GI50 of 172 nM and a TGI of 0.475 µM. `O=C(NCCCO)c1cc(Cl)ccc1O` was tested, and the GI50 was 1190 nM and the TGI was 7.18 µM. For `O=Nc1ccc(NO)c2ccccc12`, the GI50 was 13900 nM and the TGI was 44.4 µM. Work on `COC(=O)c1cc(O)c2cc3c(cc2c1-c1cc(OC)c(OC)c(OC)c1)OCO3` yielded a GI50 of 411 nM and a TGI of 44.7 µM. With `Oc1ccc(-c2nc3ccccc3s2)cc1CN(Cc1ccccn1)Cc1ccccn1` the GI50 was 2480 nM and the TGI was 17 µM. `O=C(O)C1(C(=O)O)CCC1.[NH2-].[NH2-].[Pt+2]` showed a GI50 of 43700 nM and a TGI greater than 216 µM. Compound `COc1cc(NCCCN=C(N)NC(N)=NC(C)C)c2ncccc2c1` has a GI50 of 112 nM and a TGI of 0.501 µM. For `O=C(Nc1ccc(-n2ccc3c(NC(=O)c4ccccc4)ncnc32)cc1)Nc1ccc(Cl)c(Cl)c1`, the GI50 was 1920 nM and the TGI was 8.04 µM. `O=C(Cc1ccc(F)c(F)c1)Nc1cc(C2(C(F)(F)F)CC2)nn1Cc1ccccc1` was tested, and the GI50 was 2670 nM and the TGI was 9.41 µM. With `C=CC(=O)Nc1cc(C)ccc1Nc1nc(Nc2cc(OC)ncc2C)ncc1C(F)(F)F` the GI50 was 1860 nM and the TGI was 6.06 µM. `COc1ccc2c(=O)cc(C(Cl)(Cl)Cl)oc2c1` gave a GI50 of 383 nM and a TGI of 14.4 µM. For `Cc1cc(N2CCOCC2)nc(N[C@@H]2CCC[C@H](Nc3ccnc4cc(Cl)ccc34)C2)n1`, the GI50 was 1760 nM and the TGI was 4.04 µM. Work on `CC(C)(C)c1cc(-n2c(-c3ccc(Cl)cc3)nc3cc(C(=O)Nc4ccc(Cl)cc4)ccc32)n[nH]1` yielded a GI50 of 4880 nM and a TGI greater than 100 µM. Compound `Cc1nnc(-c2cccc(-c3ccc(C(=O)NCC4CC4)cc3)c2)o1` has a GI50 greater than 25000 nM and a TGI greater than 25 µM. `CC(=O)C1=C(O)C=C2Oc3c(C(=O)/C=C/c4c(Cl)cccc4Cl)c(O)c(C)c(O)c3[C@]2(C)C1=O` gave a GI50 of 1190 nM and a TGI of 4.89 µM. With `NCCOCCOCCNc1nc(-c2ccccc2)nc(N2CCN(c3ccccn3)CC2)n1` the GI50 was 7230 nM and the TGI was 20.6 µM. `CS(=O)(=O)CCc1cccc(C(=O)c2cnn(-c3ccc(F)cc3)c2N)c1` was tested, and the GI50 was greater than 25000 nM and the TGI was greater than 25 µM. With `CC(C)=CCC[C@](C)(O)[C@H]1CC[C@]2(C)[C@@H]1CC[C@@H]1[C@@]3(C)CC/C(=N/O)C(C)(C)[C@@H]3CC[C@]12C` the GI50 was 8700 nM and the TGI was 71.3 µM. `CN(Cc1ccccc1)c1ccc(CO)c(Cl)c1` was tested, and the GI50 was 79.5 nM and the TGI was 0.248 µM. In the case of `COc1cc(-c2cc(O)c(-c3ccc4ccccc4n3)c(=O)[nH]2)cc(OC)c1OC`, the GI50 is reported as 3380 nM and the TGI is reported as 26 µM. `Cc1nc2ccccc2c(/C=C/c2ccc(Cl)cc2)c1C(=O)/C=C/c1ccc(C(F)(F)F)cc1` gave a GI50 of 1300 nM and a TGI of 2.93 µM. With `C=CCN(C)S(=O)(=O)/N=C1\NC(=O)NC1=C(Cl)Cl` the GI50 was 578 nM and the TGI was 15.6 µM. Compound `CC(C)=CCC/C(C)=C/CC/C(C)=C/CSc1ccccc1C(=O)O` has a GI50 of 27500 nM and a TGI greater than 90 µM. `C/C=C/CC(C)C(O)[C@H](NC(=O)[C@@H]1CCCN1C(=O)C(C)(C)NC(=O)CCCCCCC)C(=O)N[C@@](C)(CC)C(=O)N[C@@H](CCC(N)=O)C(=O)N[C@H](CCC(N)=O)C(=O)NC(C)(C)C(=O)NC(C)(C)C(=O)N[C@@H](CCC(N)=O)C(=O)N[C@H](CC(C)C)C(=O)N[C@H](CO)CC(C)C` (stereo partly drawn) (Octanoyl-[Aib]P[X11][Iva]Q[dQ][Aib][Aib]Q[dL][Leu(ol)]) gave a GI50 of 1680 nM and a TGI of 3.35 µM. In the case of `O=C(CCC(=O)N1CCOCC1)OCCCCCCSc1ccc([N+](=O)[O-])c2nonc12`, the GI50 is reported as 1110 nM and the TGI is reported as 2.9 µM. With `O=C(COc1cc(O)c2c(=O)cc(-c3ccccc3)oc2c1)Nc1ccccc1C(F)(F)F` the GI50 was 4950 nM and the TGI was 35.8 µM. `c1ccc(CN2COc3c(ccc4c3OCN(Cc3ccccc3)C4)C2)cc1` gave a GI50 of 796 nM and a TGI of 5.2 µM. `CC(=O)c1c(C)[nH]c(-c2nc3ccc(N4CCN(C)CC4)cc3[nH]2)c1-c1ccc(N(C)C)cc1` showed a GI50 of 200 nM and a TGI of 2.89 µM. With `O=C1C=CC(=Nc2cc(Br)c(O)c(Br)c2)C=C1` the GI50 was 10500 nM and the TGI was 30.5 µM. `O=c1cc(-c2cccc3c2Sc2ccccc2S3)oc(N2CCOCC2)c1` showed a GI50 of 2800 nM and a TGI of 14.5 µM. `CNC(=O)c1ccccc1Nc1nc(Nc2cc(OC)c(OC)c(OC)c2)ncc1Br` gave a GI50 of 78.2 nM and a TGI of 0.625 µM. For `C[n+]1c2cc(N)ccc2cc2ccc(N)cc21`, the GI50 was 342 nM [middle of 4 runs]. In the case of `COCc1cc(C(=O)Nc2cc([C@H]3CC[C@@H](OC(=O)NC(C)C)C3)[nH]n2)n(C)n1`, the GI50 is reported as 13500 nM and the TGI is reported as 35 µM. For `COc1ccc([C@@H]2C(=O)N(c3cc(OC)c(OC)c(OC)c3)[C@H]2c2ccc(OC)c(O)c2)cc1`, the GI50 was 24.5 nM and the TGI was 0.0671 µM. `C=C1CCC2C3(C)COC(c4ccccc4)OC3CCC2(C)C1/C=C/C1=CCOC1=O` (stereo not given) was tested, and the GI50 was 2490 nM and the TGI was 6.41 µM. `O=C(c1ccccc1)C1OC1c1ccc([N+](=O)[O-])cc1` (stereo not given) showed a GI50 of 2280 nM and a TGI of 6.79 µM. With `Cc1nc(-c2cn3c(n2)-c2ccc(-c4cnn(C(C)(C)C(N)=O)c4)cc2OCC3)n(C(C)C)n1` the GI50 was 134 nM and 49.9 nM and the TGI was 1.55 µM and 0.822 µM. `O=C(Nc1ccncc1)C(=O)c1cn(S(=O)(=O)c2ccc(Cl)cc2)c2ccccc12` gave a GI50 of 746 nM and a TGI of 9.11 µM. `COc1cccc(NC(=O)c2sc3nc(C)c(C(O)c4ccccc4)cc3c2N)c1` (stereo not given) showed a GI50 of 270 nM and a TGI of 30.2 µM. Work on `CCN(CC)CCCNCc1cc(-c2ccccc2)nc2ccccc12` yielded a GI50 of 14800 nM and a TGI of 30.8 µM. `Nc1c(C(=O)Nc2cccc(F)c2)sc2nc3c(cc12)C(=O)CCC3` showed a GI50 of 159 nM and a TGI greater than 100 µM.
